Source: PMC3105092 (PLoS ONE, 2011)
Where “and” joins values, the source holds several entries; their conditions need not be identical. Equal entries are not always repeated.

Legend:
hCPR [1] = biological target: T1, hCPR (Homo sapiens, UniProt P16435); experiment: Isothermal titration calorimetry of oxidised CPR with nucleotides in phosphate-free 100 mM BES, pH 7.0, 25 °C, single-site model; Kd = 1/Kobs.; format: binding
T1 construct: gene POR
T1 sequence (P16435 64-677): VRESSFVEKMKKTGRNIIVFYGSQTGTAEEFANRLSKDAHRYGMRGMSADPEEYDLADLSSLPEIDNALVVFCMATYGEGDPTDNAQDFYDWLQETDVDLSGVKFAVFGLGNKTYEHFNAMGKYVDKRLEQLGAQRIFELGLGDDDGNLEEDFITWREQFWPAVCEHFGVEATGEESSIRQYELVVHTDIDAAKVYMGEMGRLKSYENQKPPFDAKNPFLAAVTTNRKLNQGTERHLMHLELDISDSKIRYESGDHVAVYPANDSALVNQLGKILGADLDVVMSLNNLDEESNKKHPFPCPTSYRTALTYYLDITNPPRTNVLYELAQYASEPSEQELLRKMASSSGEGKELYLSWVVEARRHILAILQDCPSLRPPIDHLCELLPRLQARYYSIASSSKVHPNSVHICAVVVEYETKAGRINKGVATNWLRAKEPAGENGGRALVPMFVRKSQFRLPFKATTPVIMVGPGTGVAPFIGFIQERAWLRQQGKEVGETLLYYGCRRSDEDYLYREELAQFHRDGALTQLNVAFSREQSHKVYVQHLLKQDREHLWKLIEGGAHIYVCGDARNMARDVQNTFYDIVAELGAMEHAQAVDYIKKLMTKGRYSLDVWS
Description: Figure 3 represents the ITC binding isotherms resulting from the titration of AgCPR with 2′, 5′-ADP, NADP+ and 2′-AMP.

hCPR [2] = biological target: T1, hCPR; experiment: Inhibition of cytochrome c (50 µM) reduction in phosphate-free 0.1 M Tris-HCl pH 7.7/0.1 M KCl, 25 °C, started with 12 µM (AgCPR) or 5 µM (hCPR) NADPH.; format: biochemical; details: SEM; read-out: IC50 µM (±S.E.), Tris Buffer
Description: (§3) Measurement of cytochrome c reduction was carried out at 25°C with 50 µM cytochrome c and 0.75 pmol purified AgCPR or hCPR essentially as described [17] using 0.3 M potassium phosphate buffer, pH 7.7 or 0.1 M Tris-HCl, pH 7.7/0.1 M KCl, and different concentrations of 2′, 5′-ADP, 2′-AMP, NADP or diphenyliodonium chloride (all from Sigma-Aldrich, UK).

AgCPR [3] = biological target: T2, AgCPR (Anopheles gambiae, UniProt Q86QH5); experiment: Inhibition of cytochrome c (50 µM) reduction in 0.3 M potassium phosphate pH 7.7, 25 °C, started with 30 µM NADPH (AgCPR).; format: biochemical; parameters: Δ63AgCPR: soluble, membrane anchor (amino acids 2-63) deleted; His-tag removed by thrombin; expressed in E. coli; details: SEM; read-out: IC50 µM (±S.E.), Phosphate Buffer
Description: as §3

AgCPR [4] = biological target: T2, AgCPR; experiment: Inhibition of cytochrome c (50 µM) reduction in phosphate-free 0.1 M Tris-HCl pH 7.7/0.1 M KCl, 25 °C, started with 12 µM (AgCPR) or 5 µM (hCPR) NADPH.; format: biochemical; parameters: Δ63AgCPR: soluble, membrane anchor (amino acids 2-63) deleted; His-tag removed by thrombin; expressed in E. coli; details: SEM; read-out: IC50 µM (±S.E.), Tris Buffer
Description: as §3

[5] = biological target: T3, AgCPR (Anopheles gambiae NADPH-cytochrome P450 oxidoreductase) (Anopheles gambiae, UniProt Q86QH5); experiment: Isothermal titration calorimetry of nucleotide ligands with AgCPR; format: binding; details: for Kobs / TΔS / n (binding stoichiometry) / ΔG / ΔH: 25°C, 100 mM BES pH 7.0
T3 sequence (Q86QH5 64-679): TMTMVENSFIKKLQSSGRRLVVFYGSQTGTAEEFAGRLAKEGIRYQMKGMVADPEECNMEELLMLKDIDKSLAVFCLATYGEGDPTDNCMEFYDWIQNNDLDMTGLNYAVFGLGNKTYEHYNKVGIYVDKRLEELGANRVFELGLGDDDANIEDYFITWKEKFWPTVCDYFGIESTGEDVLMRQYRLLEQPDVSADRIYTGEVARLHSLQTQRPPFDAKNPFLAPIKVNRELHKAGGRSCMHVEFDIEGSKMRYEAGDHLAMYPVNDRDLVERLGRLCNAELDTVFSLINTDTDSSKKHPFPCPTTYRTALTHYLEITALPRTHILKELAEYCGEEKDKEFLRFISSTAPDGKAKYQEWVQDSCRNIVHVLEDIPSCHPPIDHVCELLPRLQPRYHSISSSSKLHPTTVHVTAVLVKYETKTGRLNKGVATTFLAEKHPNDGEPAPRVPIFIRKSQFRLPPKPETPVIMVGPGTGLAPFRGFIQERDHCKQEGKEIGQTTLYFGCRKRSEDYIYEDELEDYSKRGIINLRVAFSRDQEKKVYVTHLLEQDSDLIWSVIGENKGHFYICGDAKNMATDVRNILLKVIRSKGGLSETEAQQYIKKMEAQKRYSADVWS
Description: (§1) ITC experiments were performed using a ITC200 microcalorimeter (Microcal Inc/GE Healthcare). Protein samples were dialysed into 100 mM BES; pH 7.0 from 50% glycerol stocks stored at −20°C. The concentrations of all the proteins were determined by using Bradford assay. Samples were centrifuged at 13,000×g for 10 min and degassed at 23°C (2°C below the temperature at which the experiments were performed). All experiments were performed at 25°C. Typically, the protein concentration in the cell was 10–20 µM whilst ligand concentrations were in the range of 100–1000 µM. The data analysed using Origin 7.0 (Microcal) after subtracting the heats of dilution obtained from parallel experiments performed by injecting the nucleotide into the buffer. Thermodynamic parameters n (stoichiometry), K d (1/K a, the association constant), and Δ°H (enthalpy change) were obtained by nonlinear least-squares fitting of experimental data using the single-site binding model. The free energy of binding (ΔG°) and entropy change (ΔS°) were obtained using eqs 1 and 2.

hCPR (human CPR) = biological target: T4, hCPR (human CPR) (Homo sapiens, UniProt P16435); experiment: Isothermal titration calorimetry of nucleotide ligands with hCPR; format: binding; details: ITC, 25°C, 100 mM BES pH 7.0
T4 sequence (P16435 43-677 limits assumed): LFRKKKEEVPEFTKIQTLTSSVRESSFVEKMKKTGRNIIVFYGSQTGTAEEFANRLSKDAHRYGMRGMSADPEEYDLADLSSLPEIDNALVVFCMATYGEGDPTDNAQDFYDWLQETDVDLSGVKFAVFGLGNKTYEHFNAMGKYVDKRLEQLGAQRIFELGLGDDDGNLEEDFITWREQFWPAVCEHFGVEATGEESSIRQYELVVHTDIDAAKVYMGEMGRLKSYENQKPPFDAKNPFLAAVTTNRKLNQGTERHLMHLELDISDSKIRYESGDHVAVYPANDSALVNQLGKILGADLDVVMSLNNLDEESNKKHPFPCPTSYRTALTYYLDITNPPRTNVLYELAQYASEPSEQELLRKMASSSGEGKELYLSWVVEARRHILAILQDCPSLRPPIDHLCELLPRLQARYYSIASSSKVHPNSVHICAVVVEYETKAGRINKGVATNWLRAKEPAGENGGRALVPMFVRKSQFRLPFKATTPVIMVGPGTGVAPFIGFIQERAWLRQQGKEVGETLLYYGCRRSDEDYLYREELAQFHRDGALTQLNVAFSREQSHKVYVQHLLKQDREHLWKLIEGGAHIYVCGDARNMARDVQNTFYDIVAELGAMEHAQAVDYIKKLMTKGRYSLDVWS
Description: as §1

AgCPR [6] = biological target: T2, AgCPR; experiment: Inhibition of cytochrome c reduction by AgCPR; format: biochemical
Description: as §3

hCPR [7] = biological target: T5, hCPR (Homo sapiens, UniProt P16435); experiment: Inhibition of cytochrome c reduction by hCPR; format: biochemical
T5 sequence (P16435 43-677 limits assumed): T4 sequence (P16435 43-677 limits assumed)
Description: as §3

[8] = biological target: methionine synthase reductase; details: read-out: low affinity binding mode (Kd); cited from earlier work
[9] = biological target: T6, isolated apo-human FMN-binding domain of CPR (Homo sapiens, UniProt P16435); experiment: Isothermal titration calorimetry of FMN with apo-human FMN-binding domain; details: ITC, 25°C, 100 mM BES
T6 sequence (P16435 80-224 limits assumed): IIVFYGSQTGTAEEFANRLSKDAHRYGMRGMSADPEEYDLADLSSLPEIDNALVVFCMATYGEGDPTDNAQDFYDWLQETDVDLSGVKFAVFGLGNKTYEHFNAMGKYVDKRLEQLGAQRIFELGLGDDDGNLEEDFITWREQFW
Description: as §1
(§2) The binding affinity of FMN to the isolated FMN-binding domains of both A. gambiae and hCPR were also examined by titration of the apo-FMN binding domains (Figure 4). Both isotherms show reasonable binding and saturation of the apo-proteins is achieved with excess flavin.

[10] = biological target: isolated apo-A. gambiae FMN-binding domain of CPR (Anopheles gambiae, UniProt Q86QH5); experiment: Isothermal titration calorimetry of FMN with apo-A. gambiae FMN-binding domain; details: ITC
Description: as §1, §2

AgCPR [11] = biological target: T2, AgCPR; experiment: Cytochrome c and NADPH steady-state kinetics, AgCPR; format: biochemical; details: phosphate buffer, 50 µM NADPH, 25°C; read-out: Km cytc
Description: (§4) The rate of change of absorbance of horse heart cytochrome c (Sigma-Aldrich, UK) at 550 nm was measured at 25°C using a Cary 4000 UV-Visible spectrophotometer essentially as described [17]. For cytochrome c kinetics, 0.75 pmol purified AgCPR or hCPR was pre-incubated with 0–110 µM cytochrome c (dissolved in 0.3 M potassium phosphate buffer; pH 7.7 or 0.1 M Tris-HCl, pH 7.7/0.1 M KCl) in a total volume of 500 µl for 2 min at 25°C.

hCPR [12] = biological target: T5, hCPR; experiment: Cytochrome c and NADPH steady-state kinetics, hCPR; format: biochemical; details: phosphate buffer, 50 µM NADPH, 25°C; read-out: Km cytc
Description: as §4

[13] = biological target: human anchorless NADPH-cytochrome P450 oxidoreductase (hCPR) (human) (UniProt P16435)
Sequence of human anchorless NADPH-cytochrome P450 oxidoreductase (hCPR) (human) (P16435 2-21): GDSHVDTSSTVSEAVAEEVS

[14] = biological target: Δ63AgCPR (Anopheles gambiae NADPH-cytochrome P450 oxidoreductase lacking the N-terminal membrane anchor) (Anopheles gambiae)
[15] = IC50 (±S.E.), inhibition of cytochrome c reduction, Human CPR, Phosphate Buffer (0.3 M potassium phosphate pH 7.7), 15 µM NADPH, 50 µM cytochrome c, 25°C
[16] = read-out: IC50 (±S.E.), inhibition of cytochrome c reduction
[17] = 25°C, 100 mM BES, A. gambiae apo-FMN domain

Sequence of horse heart cytochrome c (P00004 whole entry): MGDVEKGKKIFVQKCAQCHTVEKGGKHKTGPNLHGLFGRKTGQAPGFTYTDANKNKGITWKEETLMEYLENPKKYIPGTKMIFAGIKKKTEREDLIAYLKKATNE

Nc1ncnc2c1ncn2[C@@H]1O[C@H](COP(=O)(O)O)[C@@H](O)[C@H]1OP(=O)(O)O [2′,5′-ADP, adenosine 2′,5′-diphosphate]
Kd (hCPR [1]): 0.038 ± 0.0038 µM
IC50 (hCPR [2]): 10 ± 1 µM
IC50 (AgCPR [3]): 262 ± 18 µM
IC50 (AgCPR [4]): 62 ± 7 µM

Nc1ncnc2c1ncn2[C@@H]1O[C@H](COP(=O)(O)O)[C@@H](O)[C@H]1OP(=O)(O)O [2′,5′-ADP]
Kd [5]: 0.41 ± 0.018 µM
binding (Kd) to AgCPR weaker than hCPR (fold) ([5]; ITC): ~10 fold
Kobs ([5]; ITC): 24.4±1.07 ×10^5 M^−1
TΔS ([5]; ITC): -4.73 kcal/mol
n (binding stoichiometry) ([5]; ITC): 1.01±0.03
ΔG ([5]; ITC): -8.40 kcal/mol
ΔH ([5]; ITC): -13.13 kcal/mol and -13.13 ± 0.35 kcal/mol
Kobs (hCPR (human CPR)): 263±26.3 ×10^5 M^−1
TΔS (hCPR (human CPR)): -9.97 kcal/mol
n (binding stoichiometry) (hCPR (human CPR)): 1.00±0.02
ΔG (hCPR (human CPR)): -10.39 kcal/mol
ΔH (hCPR (human CPR)): -20.36 kcal/mol and -20.36 ± 0.53 kcal/mol
IC50 of AgCPR relative to hCPR (fold higher) (AgCPR [6]; both phosphate and phosphate-free buffer): 6–10 fold
affinity for mosquito CPR lower than human (fold, from IC50) (AgCPR [6]; phosphate-free Tris buffer): 6 fold
IC50 (hCPR [7]; [15]): 28 ± 2 µM
Kd [8]: ~0.5 µM

Nc1ncnc2c1ncn2[C@@H]1O[C@H](CO)[C@@H](O)[C@H]1OP(=O)(O)O [2′-AMP, adenosine 2′-monophosphate]
Kd (hCPR [1]): 1.6 ± 0.44 µM
IC50 (hCPR [2]): 280 ± 25 µM
IC50 (AgCPR [3]): 1090 ± 202 µM
IC50 (AgCPR [4]): 384 ± 27 µM

Nc1ncnc2c1ncn2[C@@H]1O[C@H](CO)[C@@H](O)[C@H]1OP(=O)(O)O [2′-AMP]
Kd [5]: 4 ± 0.18 µM
Kobs ([5]; ITC): 2.51±0.11 ×10^5 M^−1
TΔS ([5]; ITC): -2.19 kcal/mol
n (binding stoichiometry) ([5]; ITC): 1.01±0.22
ΔG ([5]; ITC): -5.47 kcal/mol
ΔH ([5]; ITC): -7.66 ± 1.98 kcal/mol
Kobs (hCPR (human CPR)): 6.15±1.69 ×10^5 M^−1
TΔS (hCPR (human CPR)): -3.21 kcal/mol
n (binding stoichiometry) (hCPR (human CPR)): 1.02±0.06
ΔG (hCPR (human CPR)): -7.86 kcal/mol
ΔH (hCPR (human CPR)): -11.07 ± 0.88 kcal/mol
IC50 (AgCPR [6]; [16]): 468 µM
IC50 (hCPR [7]; [15]): 1090 µM
IC50 (hCPR [7]; [16]): 468 ± 41 µM

Cc1cc2nc3c(=O)[nH]c(=O)nc-3n(C[C@H](O)[C@H](O)[C@H](O)COP(=O)(O)O)c2cc1C [FMN, flavin mononucleotide]
Kd [9]: 0.023 ± 0.0009 µM
Kobs [9]: 438±17.5 ×10^5 M^−1
n (binding stoichiometry) [9]: 1.00±0.01
ΔG [9]: -10.28 kcal/mol
ΔH [9]: -19.46 ± 0.35 kcal/mol
FMN binding to A. gambiae FMN domain weaker than human domain (fold) [10]: ~4 fold
Kd [10, 17]: 0.083 ± 0.002 µM
Kobs [10, 17]: 120±3.19 ×10^5 M^−1
TΔS [10, 17]: -3.58 kcal/mol
n (binding stoichiometry) [10, 17]: 0.98±0.01
ΔG [10, 17]: -9.60 kcal/mol
ΔH [10, 17]: -13.18 ± 0.19 kcal/mol

c1ccc([I+]c2ccccc2)cc1 [diphenyliodonium chloride]
IC50 (AgCPR [6]): 28 ± 2 µM
AgCPR more sensitive to inhibition than hCPR (fold) (AgCPR [6]; cytochrome c reduction, phosphate buffer): ~10 fold

NADP^+
Kobs (hCPR (human CPR)): 145±24.5 ×10^5 M^−1
TΔS (hCPR (human CPR)): -8.91 kcal/mol
n (binding stoichiometry) (hCPR (human CPR)): 1.01±0.12
ΔG (hCPR (human CPR)): -10.55 kcal/mol
ΔH (hCPR (human CPR)): -19.46 kcal/mol and -19.46 ± 2.92 kcal/mol

cytochrome c: horse heart cytochrome c, surrogate electron acceptor for measuring diflavin reductase activity
Km (AgCPR [11]): 23 µM
Km (hCPR [12]): 19 µM

horse heart cytochrome c (from UniProt P00004 1-105) (natural protein)
Km^cytc of NADPH-dependent cytochrome c reduction (steady state, 0-110 µM cytochrome c, phosphate buffer, 25°C) [13]: 19 µM
Km^cytc of NADPH-dependent cytochrome c reduction (steady state, 0-110 µM cytochrome c, phosphate buffer, 25°C) [14]: 23 µM
